# Reference: patent publication US20250302768A1, “NANOPARTICLE DOPED POLYETHYLENE GLYCOL BASED GELS AND MEDICAL DEVICES FOR DRUG DELIVERY” (priority 2022, published 2025)
# Legend:
# [1] = drug elution from cured MAPLAPEG gel strips in phosphate buffered saline; assay type: physicochemical; conditions: eluted from MAPLAPEG polymers; 250 mg gel strip in 5 ml phosphate buffered saline; sampled 0.25 to 28 days; n=4
# Description: Methacrylated poly(lactic acid-co-ethylene glycol) (MAPLAPEG) macromers were synthesized with microwave synthesis with a lactate degree of polymerization (DP) of 4 and PEG400 (DP 9.5). Chitosan nanoparticles (CNP) were synthesized using ionic gelation and ketorolac tromethamine was loaded into the CNPs. For polymerization, the MAPLAPEG macromers were mixed with 10 mg/mL Phenylbis(2,4,6-trimethylbenzoyl) phosphine oxide initiator at a ratio of 1 μL each 20 μL of macromer and exposed to UV radiation at 395 nm for two minutes to form a 250 mg gel strip with the dimensions of 5 mm×3 mm×20 mm. The test groups were formed as follows: (1) gel and antibiotic; (2) gel loaded with antibiotic and CNPs; (3) gel loaded with antibiotic and (4) gel and ketorolac loaded CNPs. Gels loaded with only ketorolac loaded CNPs were used as controls for ketorolac elution. […] Eluent concentrations were measured using UV visible spectrometry. Gentamicin sulfate samples were treated with O-phthalaldehyde and the fluorescence was measured after complexation.
# FIGS. 1A-1C depict the release rates of vancomycin, gentamicin and ketorolac from the gels loaded only with antibiotics and those loaded also with particles and those loaded with particles containing ketorolac. […] The sample size for each group was four and standard deviation was calculated for each sample group.
# [2] = tested on: Staphylococcus aureus; conditions: reference values the eluted concentrations are compared with; cited from earlier work
Compound,time eluted concentration maintained above the MIC [1] [weeks],minimum inhibitory concentration (MIC) [2] [µg/mL]
"CN[C@H](CC(C)C)C(=O)N[C@H]1C(=O)N[C@@H](CC(N)=O)C(=O)N[C@H]2C(=O)N[C@H]3C(=O)N[C@H](C(=O)N[C@H](C(=O)O)c4cc(O)cc(O)c4-c4cc3ccc4O)[C@H](O)c3ccc(c(Cl)c3)Oc3cc2cc(c3O[C@@H]2O[C@H](CO)[C@@H](O)[C@H](O)[C@H]2O[C@H]2C[C@](C)(N)[C@H](O)[C@H](C)O2)Oc2ccc(cc2Cl)[C@H]1O [Vancomycin, vancomycin]",4,0.5 to 2
gentamicin,4,1.5 to 3
